Experimental data as given in PubChem BioAssay (NCI).
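Values below derive from 48-hour exposures of cells grown in 96-well plates, with endpoints linearly interpolated between the two concentrations bracketing the appropriate inhibition level. The concentration for 50% growth inhibition is given as GI50. Definition used: TGI = concentration required for complete inhibition of growth.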

Experiments:
Assay in all cases: NCI anticancer screen, dose series, 48 h
[1] = test system: LOX IMVI melanoma
[2] = test system: OVCAR-4 ovarian
[3] = test system: SF-295 CNS
[4] = test system: 786-0 renal
[5] = test system: SF-539 CNS
[6] = test system: COLO 205 colon
[7] = test system: PC-3 prostate
[8] = test system: BT-549 breast
[9] = test system: T-47D breast
[10] = test system: NCI-H226 lung

Structure (SMILES)	TGI [1] [µM]	TGI [2] [µM]	TGI [3] [µM]	TGI [4] [µM]	TGI [5] [µM]	TGI [6] [µM]	TGI [7] [µM]	GI50 [1] [µM]	GI50 [2] [µM]	TGI [8] [µM]	GI50 [4] [µM]	GI50 [5] [µM]	TGI [9] [µM]	GI50 [10] [µM]	TGI [10] [µM]	GI50 [6] [µM]	GI50 [7] [µM]	GI50 [8] [µM]	GI50 [3] [µM]	GI50 [9] [µM]
CC(C)(C)C(=O)O[C@@H]1COC2C(O)COC21 (stereo partly specified)	> 100	> 100	> 100	> 100	> 100	> 100														
O=C1c2c(O)cc(O)cc2OC(c2ccc(O)cc2O)C1O (stereo unspecified)	> 100	> 100	> 100	> 100	> 100	> 100	> 100	> 100	> 100	> 100	> 100	> 100	> 100	> 100	> 100	> 100				
CS(=O)(=O)CCNCc1ccc(-c2ccc3ncnc(Nc4ccc(OCc5ccccc5)c(Cl)c4)c3c2)o1	8.2	> 25	12.1	8.58	9.2	9.67	24.2	4.11	9.59	> 25	4.06	4.26	12.9	4.74	> 22.9	4.05	7.41	6.9	4.94	1.1
CCC(C(=O)[O-])C(=O)[O-].CCC(C(=O)[O-])C(=O)[O-].N.N.NCCCCCCN.[Pt+4].[Pt+4]	20.6	13	50	14.5	21.7	1.66		10.1	5.85		7.74	10.4		10	20.2	0.883			23.2	
Cc1cc(C)c(S(=O)(=O)ONC(=O)OC(C)(C)C)c(C)c1	> 100	> 100	> 100	> 100	> 100	> 100														
COc1cc([C@@H]2c3cc4c(cc3[C@@H](NC(=O)c3cccc(F)c3)C3COC(=O)[C@@H]32)OCO4)cc(OC)c1O (stereo partly specified)	15.1	> 100	26.8	2.26	1.7	22.1									2.2					
CCOC(=O)Nc1ccc(-c2nc(-c3cccc(OC)c3)c(-c3ccnc(Br)c3)[nH]2)cc1	3.32		2.93	> 100	4.56	> 100	8.9	1.56		8.11	2.16	1.76	6.47	2.21	7.78	3.23	2.52	2.19	0.416	1.96
Nc1nnc(Cn2c(-c3ccccc3)nc3ccc(Br)cc3c2=O)s1	> 100	> 100	> 100	> 100	> 100	> 100	> 100	26.1	> 100	> 100	58.7	32.9	> 100			64.6	38.2	58.3	26.2	> 100
COc1ccc2c(c1)CCC1=CC3(CCC12C)SCCS3 (stereo unspecified)	> 10	> 10	> 10	> 10		> 10	> 10			> 10			> 10							
O=C(CC(=O)C1CCOC1=O)C(=O)Nc1ccc(Cl)cc1Cl (stereo unspecified)	> 100	> 100	> 100	> 100	> 100	> 100									> 100					
COc1ccc(/C(=N/NC(N)=O)C(c2ccc(OC)cc2)C2C(=O)Oc3ccccc32)cc1 (stereo unspecified)	> 100	> 100	> 100	> 100	> 100	> 100									> 100					
OC(c1ccccn1)C1CNc2ccccc21 (stereo unspecified)	> 100	> 100	> 100	> 100	> 100	> 100									> 100					
O=C1C(Cl)=C(Nc2cccc(O)c2)C(=O)N1c1ccccc1Cl	52.6	> 100	> 100	> 100		> 100	31.2	20.1	40.4	75.4	39		> 100	17	49.6	30.3	10.7	21.8	40	32.3
O=C(O)Cn1c(=O)[nH]c(=O)c2c1ncn2Cc1ccccc1				> 100	> 100	> 100									> 100					
CCCCn1sc(=O)n(Cc2ccc(CNC(=O)OCc3ccc4c(Br)cc(Br)c(O)c4n3)cc2)c1=O	> 100	> 100	> 24.5	> 100	0.633	> 100	> 100	0.403	0.701	> 100	1.58	0.23	> 100			24.8	0.651	0.406	4.09	> 100
CC(=O)NNc1nc(C)c(C(/C=C/c2ccc(Cl)cc2)=N/NC(=O)C[N+](C)(C)C)s1	> 100	> 100	> 100	> 100	> 100	> 100									> 100					
COC(=O)c1ccc(Cc2ccc(C(=O)OC)o2)o1	> 378		> 378	> 378	> 378	> 378									> 378					
CCC[CH2][Sn]([CH2]CCC)([O]C(=O)C1CCC(=O)N1)[O]C(=O)C1CCC(=O)N1 (stereo unspecified)	0.328	1.71	1.05	0.409	0.414	1.16		0.152	0.376		0.196	0.185		1.43	2.81	0.363			0.274	
Cc1ccc(C)c(NC(=O)CCc2nc(=S)[nH][nH]2)c1	> 100	> 100	> 100	> 100	> 100	> 100									> 100					
CCCCCCCCCCCCN(O)C(=O)c1ccccc1	> 100		> 100	49.2	63.6															

Structure (SMILES)	TGI [1] [µM]	TGI [2] [µM]	TGI [3] [µM]	TGI [4] [µM]	TGI [5] [µM]	TGI [6] [µM]	TGI [7] [µM]	GI50 [1] [µM]	GI50 [2] [µM]	TGI [8] [µM]	GI50 [4] [µM]	GI50 [5] [µM]	TGI [9] [µM]	GI50 [10] [µM]	TGI [10] [µM]	GI50 [6] [µM]	GI50 [7] [µM]	GI50 [8] [µM]	GI50 [3] [µM]	GI50 [9] [µM]
COCCOCC(=O)N(CCn1ccc(NC(c2ccccc2)(c2ccccc2)c2ccccc2)nc1=O)CCn1cnc2nc(N)[nH]c(=O)c21	> 100	> 100	> 100	> 100	> 100	> 100									> 100					
O=[N+]([O-])c1ccc2ncccc2c1Cl	14.5			20.4	34.2		20.2	2.4		9.57	3.28	2.76	42.1	6.22	> 100		3.75	3.29		11.2
CC(=O)OCC1O[C@@H]([S-])C(OC(C)=O)[C@H](OC(C)=O)[C@@H]1OC(C)=O.[Au+].c1ccc(CN2[CH-]N(Cc3ccccc3)C(c3ccccc3)=C2c2ccccc2)cc1	3.86	3.15	6.31	3.39	3.56	3.75	3.7	1.9	1.4	3.54	1.69	1.85		3	9.04	1.99	1.83	1.86	2.34	
N#CC1(C=O)c2ccccc2C=CN1C(=O)c1ccccc1 (stereo unspecified)		> 100		> 100		> 100									> 100					
O=C(NCCCCCCCCNC(=O)c1cccc2ccccc12)c1cccc2ccccc12	> 100	19	> 56.1	23.3	34	> 100	> 100			> 100					22.8					
COc1ccc(CNc2nc3c(NC(C)=O)cc(C(F)(F)F)cc3nc2-c2ccccc2)cc1OC	> 100	95.7	> 100	> 100	> 100	> 100														
CC(=O)[O-].O=C([CH-]C(=O)c1ccccc1)c1ccccc1.O=C([CH-]C(=O)c1ccccc1)c1ccccc1.[Y+3]	23.4	77.3	18.5	18	37	22.1		4.95	5.73		3.9	8.67		2.56	9.69	8.61			3.29	
CN(C)c1n/c(=N/c2ncn[nH]2)ss1	> 100	> 100	> 100	> 100	> 100										> 100					
c1ccc(COCC2OC3c4ccccc4COC3C2OCc2ccccc2)cc1 (stereo unspecified)		> 100	> 100	> 100	> 100	> 100									> 100					
COc1ccc(-c2ccc(/C=N/n3c(C)nn(CN4CCN(C)CC4)c3=S)o2)c([N+](=O)[O-])c1		35.7	48.2	> 100	> 100	> 100	92		7.91	> 100	39.4	54.4	> 100			52.5	24.9	> 100	18.3	45.6
COC(=O)C(Cc1nc2ccc(Cl)cc2[nH]c1=O)/C(=N/NC(N)=O)C(=O)Nc1ccc(Cl)cc1 (stereo unspecified)	> 100	> 100	> 100	> 100	> 100	> 100									> 100					
COc1cc(-c2cc(=O)c3cc(C)c(C)c(C(=O)O)c3o2)cc(OC)c1OC	> 100	> 100	> 100	> 100	> 100	> 100														
Cn1c2cc(O)cc(O)c2c(=O)c2c([N+](=O)[O-])cccc21	> 100	> 100	> 100	> 100	> 100	> 100									> 100					
CC/C(C)=C1\OC(=O)C(C)C(O)C(Cc2cccnc2)NC(=O)C(NC(=O)c2ncccc2O)C(C)OC1=O (stereo unspecified)	> 100	> 100	> 100	> 100	> 100	> 100	> 100			> 100			> 100							
O=C(NO)C(=O)Nc1ccc(Cl)cc1[N+](=O)[O-]	> 100	> 100	> 100	> 100	> 100	> 100									> 100					
CCOC(=O)c1cc2c(n1Cc1ccccc1)-c1oncc1CC2	25.4	> 100	11.1	34.2	25.4	14.2	94.1	5.5	7.69		7.51	4.04	32	10.7	> 100	3.93	9.68		2.89	4.66
COC12CC(=O)C(C(C)=O)=C(O)C1(C)c1c(OC(C)=O)c(C)c(O)c(C(C)=O)c1O2 (stereo unspecified)	> 100	> 100	> 100	> 100	> 100										65.7					
COC(OC)[C@@H](C)[C@H](O)[C@](C)(O)C1OC(C)(C)OC(C(C)C=C(C)C)C1C (stereo partly specified)	> 100	> 100	> 100	> 100	> 100	> 100									> 100					
CC(=O)OC1CC2C(C)(C)C(=O)C=CC2(C)C2CCC3(C)C(c4ccoc4)OC(=O)C4OC43C12C (stereo unspecified)		> 100	> 100	27.4	26.6	21.7	> 100			44.4			> 100		> 100					
CSc1ccc(/C=C/c2ccnc3ccccc23)cc1	25.4		27.5	27.9	32.7	27.5	19.2						41.7		29					
